Test results as given in ChEMBL document CHEMBL1201862, “PubChem BioAssay data set” (2004).
Structures can show the parent of a compound that is named as a salt. The source made the active and inactive calls.

Assays:
[1] = target: Voltage-gated inwardly rectifying potassium channel KCNH2 (Homo sapiens, UniProt Q12809); details: Potency;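 further: confirmatory quantitative high-throughput screen measuring inhibition of hERG channel activity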
CAAX prenyl protease 2 [2] = target: T1, CAAX prenyl protease 2 (Saccharomyces cerevisiae S288c, UniProt Q03530); assay type: biochemical
T1 sequence (Q03530 whole entry): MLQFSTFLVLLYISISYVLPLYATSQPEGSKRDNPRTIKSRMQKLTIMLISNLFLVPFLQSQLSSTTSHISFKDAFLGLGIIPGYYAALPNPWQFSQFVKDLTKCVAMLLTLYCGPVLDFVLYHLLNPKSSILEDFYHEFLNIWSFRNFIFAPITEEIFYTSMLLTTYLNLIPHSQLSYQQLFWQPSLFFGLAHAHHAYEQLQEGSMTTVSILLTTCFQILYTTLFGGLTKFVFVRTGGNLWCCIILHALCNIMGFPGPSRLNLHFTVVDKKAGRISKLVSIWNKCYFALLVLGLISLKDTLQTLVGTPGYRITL

CAAX prenyl protease 2 [3] = target: CAAX prenyl protease 2 (Homo sapiens, UniProt Q9Y256); experiment: human Rce1 protease inhibitors, dose response, biochemical, yeast membranes, quenched-peptide fluorescence, cherry-pick (AID 588849)
Trypsin = Trypsin (Sus scrofa, UniProt P00761); experiment: porcine trypsin inhibitors, dose response, selectivity assay for Rce1 protease inhibitor project, biochemical, quenched peptide fluorescence, cherry-pick (AID 488789)
[4] = growth induction of Burl-1 ts yeast mutant, dose response, counter-screen for SUMOylation pathway inhibitor project, whole organism, S. cerevisiae, luminescence (AID 463199); assay type: functional
Vero [5] = experiment: cells; assay type: functional, cell-based; details: Chlorocebus sabaeus
Beta-galactosidase = Beta-galactosidase (Escherichia coli, UniProt Q8VNN2); experiment: PubChem AID 485352; assay type: functional
[6] = target: T2, Type-1 angiotensin II receptor (Homo sapiens, UniProt P30556); experiment: AT1 receptor antagonists, dose response, selectivity assay for APJ receptor antagonist project, cell-based, uHTS hits (AID 463214); assay type: functional;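 further: antagonist potency against angiotensin II stimulated AT1 response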
T2 sequence (P30556 whole entry): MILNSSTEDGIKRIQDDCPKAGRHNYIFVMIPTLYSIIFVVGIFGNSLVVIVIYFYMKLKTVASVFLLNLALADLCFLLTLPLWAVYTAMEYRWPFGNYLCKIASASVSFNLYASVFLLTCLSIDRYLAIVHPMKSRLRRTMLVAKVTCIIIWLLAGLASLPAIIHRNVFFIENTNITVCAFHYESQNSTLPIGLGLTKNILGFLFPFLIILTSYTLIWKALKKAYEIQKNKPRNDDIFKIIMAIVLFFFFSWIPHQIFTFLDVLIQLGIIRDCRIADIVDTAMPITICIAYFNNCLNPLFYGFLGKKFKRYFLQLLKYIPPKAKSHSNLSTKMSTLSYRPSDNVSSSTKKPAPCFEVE

[7] = target: Glucose-6-phosphate 1-dehydrogenase (Homo sapiens, UniProt P11413); experiment: human G6PD enzyme inhibitors, dose response, selectivity assay for P. falciparum G6PD inhibitor project, biochemical, fluorescence (AID 504792); assay type: functional
[8] = inhibitors of intracellular T. cruzi replication, confirmation, NIH3T3 host cells, beta-gal luminescence (AID 2044); assay type: functional, cell-based;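 further: intracellular parasites grown in NIH/3T3 mouse fibroblasts as host cells; luminescent beta-galactosidase reporter signal from transgenic T. cruzi replicating inside host cells; inhibitors lower the luminescence signal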
[9] = cytotoxicity toward NIH3T3 fibroblasts, dose response, counter-screen, cell-based, ATP luminescence, mouse fibroblasts (AID 2010); assay type: functional;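 further: cells exposed to compound for about 90 hours before reading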
SUMO-activating enzyme = SUMO-activating enzyme (Homo sapiens, UniProt Q9UBT2); experiment: SUMOylation inhibitor hit validation, confirmation, SUMOylation inhibitor project, biochemical, AlphaScreen (AID 2018); assay type: functional
CHO-K1 = experiment: Counterscreen for antagonists of the orexin 1 receptor (OX1R; HCRTR1): Homogeneous time resolved fluorescence (HTRF)-based cell-based dose response assay to identify antagonists of the parental CHO-K1 cell line. [Related pubchem assays (depositor defined):AID434989, AID435008, AID463079, AID485270, AID492963, AID492964, AID492965, AID493232, AID504699, AID504701]; assay type: functional; details: Cricetulus griseus;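 further: potency for inhibition of ATP-stimulated IP1 production as antagonists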
[10] = Counterscreen for antagonists of the orexin 1 receptor (OX1R; HCRTR1): Fluorescence-based cell-based high throughput dose response assay to identify antagonists of the parental CHO cell line. [Related pubchem assays (depositor defined):AID434989, AID435008, AID463079, AID485270, AID492963, AID492964, AID492965, AID493232, AID504699, AID504701]; assay type: functional
[11] = target: T3, Orexin/Hypocretin receptor type 1 (Homo sapiens, UniProt O43613); experiment: Fluorescence-based cell-based high throughput dose response assay for antagonists of the orexin 1 receptor (OX1R; HCRTR1). [Related pubchem assays (depositor defined):AID434989, AID435008, AID463079, AID485270, AID492963, AID492964, AID492965, AID493232, AID504717, AID504718]; assay type: functional
T3 sequence (O43613 whole entry): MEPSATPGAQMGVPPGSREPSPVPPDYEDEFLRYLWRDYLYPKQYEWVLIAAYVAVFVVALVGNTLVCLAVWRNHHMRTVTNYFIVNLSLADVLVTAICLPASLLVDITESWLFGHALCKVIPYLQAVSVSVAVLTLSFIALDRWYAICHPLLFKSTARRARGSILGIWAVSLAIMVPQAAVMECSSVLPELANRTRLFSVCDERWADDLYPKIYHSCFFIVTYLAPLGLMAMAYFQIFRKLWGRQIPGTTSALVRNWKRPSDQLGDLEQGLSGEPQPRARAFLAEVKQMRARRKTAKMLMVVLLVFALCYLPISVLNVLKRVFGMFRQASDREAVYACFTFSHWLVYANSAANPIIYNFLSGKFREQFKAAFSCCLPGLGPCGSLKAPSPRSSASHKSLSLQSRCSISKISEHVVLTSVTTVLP

[12] = target: T3, Orexin/Hypocretin receptor type 1; experiment: Homogeneous Time Resolved Fluorescence (HTRF)-based cell-based high throughput dose response assay for antagonists of the orexin 1 receptor (OX1R; HCRTR1). [Related pubchem assays (depositor defined):AID434989, AID435008, AID463079, AID485270, AID492963, AID492964, AID492965, AID493232, AID504717, AID504718]; assay type: functional
[13] = target: T4, Tyrosine-protein phosphatase non-receptor type 7 (Homo sapiens, UniProt P35236); experiment: HePTP (PTPN7) phosphatase inhibitor potency, SAR follow-up, biochemical, set 2 (AID 449736); assay type: functional
T4 sequence (P35236 whole entry): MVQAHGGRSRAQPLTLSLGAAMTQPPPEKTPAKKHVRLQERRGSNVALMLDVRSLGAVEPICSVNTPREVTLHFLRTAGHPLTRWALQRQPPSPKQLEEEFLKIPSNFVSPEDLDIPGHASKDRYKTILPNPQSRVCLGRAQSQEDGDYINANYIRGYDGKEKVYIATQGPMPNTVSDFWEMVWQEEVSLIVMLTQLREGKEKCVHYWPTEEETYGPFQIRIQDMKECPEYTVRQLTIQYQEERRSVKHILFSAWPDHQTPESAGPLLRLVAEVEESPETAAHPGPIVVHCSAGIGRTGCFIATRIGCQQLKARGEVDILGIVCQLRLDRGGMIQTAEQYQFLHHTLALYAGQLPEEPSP

Escherichia coli [14] = experiment: microbe, parasite or virus in culture
[15] = target: T5, RNA-binding protein pos-1 (Caenorhabditis elegans, UniProt G5EF15); experiment: inhibitors of POS-1/mex-3 RNA binding, dose response, biochemical, fluorescence polarization (AID 1964);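 further: purified POS-1 fused to maltose binding protein made in E. coli; potency of compounds blocking POS-1 binding to fluorescent RNA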
T5 sequence (G5EF15 whole entry): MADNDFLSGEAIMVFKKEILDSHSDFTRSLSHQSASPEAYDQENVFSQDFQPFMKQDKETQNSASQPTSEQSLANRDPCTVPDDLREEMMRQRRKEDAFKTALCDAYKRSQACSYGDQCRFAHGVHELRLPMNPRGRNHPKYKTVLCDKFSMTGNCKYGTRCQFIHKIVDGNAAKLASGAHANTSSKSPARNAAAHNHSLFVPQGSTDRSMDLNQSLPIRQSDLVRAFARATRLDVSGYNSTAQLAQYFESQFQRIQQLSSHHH

[16] = target: T6, Zinc finger protein mex-5 (Caenorhabditis elegans, UniProt Q9XUB2); experiment: MEX-5/TCR-2 RNA interaction inhibitors, dose response, biochemical, C. elegans, fluorescence polarization (AID 1960)
T6 sequence (Q9XUB2 whole entry): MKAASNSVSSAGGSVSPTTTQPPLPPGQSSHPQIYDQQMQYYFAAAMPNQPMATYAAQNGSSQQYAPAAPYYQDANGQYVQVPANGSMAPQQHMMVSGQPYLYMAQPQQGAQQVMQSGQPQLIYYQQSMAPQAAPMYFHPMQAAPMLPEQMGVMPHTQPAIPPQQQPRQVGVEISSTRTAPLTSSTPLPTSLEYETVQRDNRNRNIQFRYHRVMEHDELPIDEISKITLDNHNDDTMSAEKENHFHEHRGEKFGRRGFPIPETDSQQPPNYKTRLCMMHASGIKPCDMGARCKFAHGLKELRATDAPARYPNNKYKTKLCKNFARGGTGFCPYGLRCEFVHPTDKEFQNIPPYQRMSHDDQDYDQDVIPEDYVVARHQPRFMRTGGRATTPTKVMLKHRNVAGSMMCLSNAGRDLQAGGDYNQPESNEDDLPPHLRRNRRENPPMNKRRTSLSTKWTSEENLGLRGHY

[17] = target: Dual specificity tyrosine-phosphorylation-regulated kinase 1A (Rattus norvegicus, UniProt Q63470); assay type: biochemical, Homo sapiens
Nonstructural protein 1 = Nonstructural protein 1 (Influenza A virus, UniProt Q194T2); assay type: functional, Influenza A virus (A/California/07/2009(H1N1))
INS1 = experiment: beta cell apoptosis inhibitors, cytokine rescue, dose response, luminescence, retest (AID 449756); assay type: functional, cell-based; details: Rattus norvegicus;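 further: cell death triggered by IL-1 beta plus TNF-alpha plus IFN-gamma mixture; protective hits raise ATP signal compared with cytokine alone wells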
[18] = C. albicans growth with fluconazole, confirmation, fluorescence, retest (AID 2467); assay type: functional, cell-based
BJ [19] = experiment: cytotoxicity toward BJ-TERT fibroblasts, dose response, cell-based, RAS-independent, luminescence (AID 1933); assay type: functional; details: Homo sapiens
[20] = NIH-3T3 fibroblast cytotoxicity, dose response, cytotoxicity control, cell-based, fluorescence, Alamar Blue, secondary assay (AID 2327); assay type: functional;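 further: NIH-3T3 mouse fibroblasts cultured with fluconazole at 8 µg/mL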
[21] = cytotoxicity toward DRD oncogenic fibroblasts, dose response, cell-based, non-viral oncogenic, luminescence (AID 1934); assay type: functional; details: Homo sapiens
BJ [22] = experiment: cells; assay type: functional, cell-based; details: Homo sapiens
BJ [23] = experiment: cytotoxicity toward BJ-TERT-LT-ST fibroblasts, dose response, cell-based, RAS-independent, luminescence (AID 1935); assay type: functional; details: Homo sapiens;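 further: BJ fibroblasts immortalized with TERT plus LT and ST oncogenes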
Vero [24] = experiment: cells; assay type: functional; details: Chlorocebus sabaeus
[25] = A cytotoxicity screen of small molecule inhibitors of the PhoP region in Salmonella typhi identified in the primary screen. [Related pubchem assays: 1850, 1864, 1985 ]; assay type: functional
Escherichia coli [26] = experiment: microbe, parasite or virus in culture; remark: listed apart in the source

Chain of Voltage-gated inwardly rectifying potassium channel KCNH2 (Q12809 whole entry): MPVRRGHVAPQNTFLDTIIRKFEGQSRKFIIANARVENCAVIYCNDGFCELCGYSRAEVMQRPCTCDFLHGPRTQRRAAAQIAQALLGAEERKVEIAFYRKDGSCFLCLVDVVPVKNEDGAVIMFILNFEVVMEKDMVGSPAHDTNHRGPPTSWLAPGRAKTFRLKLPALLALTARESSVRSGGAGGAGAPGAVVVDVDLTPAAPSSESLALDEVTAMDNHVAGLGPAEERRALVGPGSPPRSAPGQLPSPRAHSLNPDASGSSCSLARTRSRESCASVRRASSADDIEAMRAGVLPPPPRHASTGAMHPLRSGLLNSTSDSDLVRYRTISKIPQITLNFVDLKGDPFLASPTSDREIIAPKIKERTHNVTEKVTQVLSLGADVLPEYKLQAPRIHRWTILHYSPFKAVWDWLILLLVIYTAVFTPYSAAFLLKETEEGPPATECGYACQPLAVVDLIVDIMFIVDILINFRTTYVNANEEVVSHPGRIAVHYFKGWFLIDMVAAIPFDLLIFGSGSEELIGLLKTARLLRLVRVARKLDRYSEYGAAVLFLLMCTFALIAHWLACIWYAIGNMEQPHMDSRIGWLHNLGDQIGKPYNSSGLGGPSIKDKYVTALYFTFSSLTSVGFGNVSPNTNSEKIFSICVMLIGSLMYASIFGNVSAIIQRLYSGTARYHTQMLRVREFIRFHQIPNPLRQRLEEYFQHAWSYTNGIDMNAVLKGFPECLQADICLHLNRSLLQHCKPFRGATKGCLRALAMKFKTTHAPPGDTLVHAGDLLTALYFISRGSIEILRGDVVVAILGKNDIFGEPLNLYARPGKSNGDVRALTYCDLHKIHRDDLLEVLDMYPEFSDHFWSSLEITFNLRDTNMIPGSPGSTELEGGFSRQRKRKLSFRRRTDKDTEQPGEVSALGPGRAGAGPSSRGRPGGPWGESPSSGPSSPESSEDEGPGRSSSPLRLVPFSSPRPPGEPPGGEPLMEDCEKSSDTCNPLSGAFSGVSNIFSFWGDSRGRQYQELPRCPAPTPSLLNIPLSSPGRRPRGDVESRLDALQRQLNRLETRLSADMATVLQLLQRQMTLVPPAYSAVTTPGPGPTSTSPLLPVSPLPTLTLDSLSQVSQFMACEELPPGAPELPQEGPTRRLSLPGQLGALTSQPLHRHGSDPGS
Chain of Trypsin (P00761 whole entry): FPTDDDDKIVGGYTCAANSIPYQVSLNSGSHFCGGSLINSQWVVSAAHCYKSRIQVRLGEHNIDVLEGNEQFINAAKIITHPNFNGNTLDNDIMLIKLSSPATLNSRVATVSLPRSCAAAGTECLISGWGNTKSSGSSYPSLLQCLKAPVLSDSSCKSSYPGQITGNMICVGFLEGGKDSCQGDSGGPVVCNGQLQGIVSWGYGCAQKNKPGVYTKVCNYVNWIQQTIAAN
Chain of CAAX prenyl protease 2 (Homo sapiens, UniProt Q9Y256) (Q9Y256 whole entry): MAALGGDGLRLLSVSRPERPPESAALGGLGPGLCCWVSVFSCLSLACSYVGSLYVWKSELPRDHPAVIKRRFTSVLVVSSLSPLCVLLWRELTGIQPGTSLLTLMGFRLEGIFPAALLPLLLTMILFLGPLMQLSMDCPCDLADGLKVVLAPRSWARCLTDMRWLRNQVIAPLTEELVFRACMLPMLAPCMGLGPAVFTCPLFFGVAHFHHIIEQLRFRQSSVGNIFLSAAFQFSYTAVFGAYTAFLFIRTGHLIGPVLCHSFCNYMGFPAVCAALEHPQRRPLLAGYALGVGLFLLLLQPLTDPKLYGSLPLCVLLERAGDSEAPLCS
Chain of SUMO-activating enzyme (Q9UBE0 whole entry): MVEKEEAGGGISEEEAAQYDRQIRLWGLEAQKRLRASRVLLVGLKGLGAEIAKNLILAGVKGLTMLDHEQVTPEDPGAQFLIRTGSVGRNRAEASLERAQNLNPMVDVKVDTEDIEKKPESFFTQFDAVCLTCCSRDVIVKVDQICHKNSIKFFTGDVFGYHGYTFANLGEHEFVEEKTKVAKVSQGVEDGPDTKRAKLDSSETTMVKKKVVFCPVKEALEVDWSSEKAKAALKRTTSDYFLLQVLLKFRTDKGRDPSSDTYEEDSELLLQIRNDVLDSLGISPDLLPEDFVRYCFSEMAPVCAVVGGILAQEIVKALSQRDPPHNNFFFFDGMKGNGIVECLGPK
Chain of SUMO-activating enzyme (Q9UBT2 whole entry): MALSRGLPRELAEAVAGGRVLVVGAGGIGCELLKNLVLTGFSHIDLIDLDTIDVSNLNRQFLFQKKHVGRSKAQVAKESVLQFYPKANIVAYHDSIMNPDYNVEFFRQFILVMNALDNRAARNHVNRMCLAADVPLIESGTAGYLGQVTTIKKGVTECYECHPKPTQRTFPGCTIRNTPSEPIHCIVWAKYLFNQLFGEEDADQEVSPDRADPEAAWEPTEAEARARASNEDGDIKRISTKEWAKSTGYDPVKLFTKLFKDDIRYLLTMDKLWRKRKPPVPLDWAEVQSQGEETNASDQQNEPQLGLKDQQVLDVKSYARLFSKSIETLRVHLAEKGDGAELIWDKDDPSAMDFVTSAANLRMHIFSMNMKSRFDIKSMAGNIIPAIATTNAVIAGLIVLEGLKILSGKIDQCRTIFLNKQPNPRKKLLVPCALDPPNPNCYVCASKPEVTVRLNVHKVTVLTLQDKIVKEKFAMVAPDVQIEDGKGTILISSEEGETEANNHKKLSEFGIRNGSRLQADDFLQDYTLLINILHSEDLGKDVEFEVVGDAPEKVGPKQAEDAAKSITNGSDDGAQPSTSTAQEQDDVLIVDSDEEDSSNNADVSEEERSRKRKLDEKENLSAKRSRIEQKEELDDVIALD
Chain of Nonstructural protein 1 (Q194T2 whole entry): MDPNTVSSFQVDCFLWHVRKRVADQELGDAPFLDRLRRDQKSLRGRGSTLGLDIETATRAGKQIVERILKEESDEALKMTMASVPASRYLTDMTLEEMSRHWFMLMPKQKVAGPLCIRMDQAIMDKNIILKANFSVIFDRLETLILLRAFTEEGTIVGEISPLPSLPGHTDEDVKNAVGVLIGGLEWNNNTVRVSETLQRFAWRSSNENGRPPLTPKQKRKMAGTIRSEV
Chain of Beta-galactosidase (Q8VNN2 whole entry): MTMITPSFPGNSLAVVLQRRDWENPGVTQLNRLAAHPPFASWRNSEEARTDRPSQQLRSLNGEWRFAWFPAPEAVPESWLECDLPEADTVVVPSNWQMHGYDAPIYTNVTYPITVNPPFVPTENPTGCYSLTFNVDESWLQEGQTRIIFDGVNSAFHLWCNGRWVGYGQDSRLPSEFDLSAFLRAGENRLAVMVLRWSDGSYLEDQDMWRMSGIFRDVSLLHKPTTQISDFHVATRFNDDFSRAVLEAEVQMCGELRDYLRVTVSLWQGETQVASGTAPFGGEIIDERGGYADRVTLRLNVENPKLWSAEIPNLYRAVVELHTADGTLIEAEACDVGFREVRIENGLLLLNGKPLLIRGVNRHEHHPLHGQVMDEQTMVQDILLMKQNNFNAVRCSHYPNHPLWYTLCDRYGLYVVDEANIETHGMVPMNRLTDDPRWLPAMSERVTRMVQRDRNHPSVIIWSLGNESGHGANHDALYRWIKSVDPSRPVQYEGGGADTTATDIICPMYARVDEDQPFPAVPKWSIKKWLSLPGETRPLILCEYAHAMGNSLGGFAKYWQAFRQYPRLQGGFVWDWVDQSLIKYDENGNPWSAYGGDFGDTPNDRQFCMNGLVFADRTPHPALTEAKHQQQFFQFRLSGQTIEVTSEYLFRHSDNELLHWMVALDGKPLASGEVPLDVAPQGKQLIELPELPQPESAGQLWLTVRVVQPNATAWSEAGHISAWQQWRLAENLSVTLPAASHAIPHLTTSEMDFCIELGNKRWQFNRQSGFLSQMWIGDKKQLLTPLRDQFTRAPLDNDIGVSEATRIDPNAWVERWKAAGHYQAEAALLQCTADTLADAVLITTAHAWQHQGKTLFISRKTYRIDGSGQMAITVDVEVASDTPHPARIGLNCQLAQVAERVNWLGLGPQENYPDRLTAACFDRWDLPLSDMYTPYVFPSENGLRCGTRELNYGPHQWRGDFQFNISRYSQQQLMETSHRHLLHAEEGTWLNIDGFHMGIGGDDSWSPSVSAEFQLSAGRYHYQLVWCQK
Chain of Glucose-6-phosphate 1-dehydrogenase (P11413 whole entry): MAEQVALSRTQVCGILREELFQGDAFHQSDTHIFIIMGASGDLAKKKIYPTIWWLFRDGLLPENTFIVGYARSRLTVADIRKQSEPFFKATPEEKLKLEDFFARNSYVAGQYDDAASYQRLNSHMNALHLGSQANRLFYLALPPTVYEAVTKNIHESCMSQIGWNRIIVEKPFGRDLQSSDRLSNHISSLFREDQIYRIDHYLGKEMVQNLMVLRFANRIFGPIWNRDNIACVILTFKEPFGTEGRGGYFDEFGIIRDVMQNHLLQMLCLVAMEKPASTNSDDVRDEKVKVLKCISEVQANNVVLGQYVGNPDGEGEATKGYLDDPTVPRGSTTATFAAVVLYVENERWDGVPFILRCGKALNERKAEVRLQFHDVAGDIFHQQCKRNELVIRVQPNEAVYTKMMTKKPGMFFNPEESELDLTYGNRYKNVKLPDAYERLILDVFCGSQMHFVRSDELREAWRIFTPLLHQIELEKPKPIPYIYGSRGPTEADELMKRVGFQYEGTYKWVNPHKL

SMILES: CN1CCN(CC/C=C2/c3ccccc3Sc3ccc(S(=O)(=O)N(C)C)cc32)CC1
- AC50 [1]: 2.51 µM (inconclusive)

SMILES: COc1ccc(-n2nc(C(=O)NCC(=O)NCc3ccc(F)cc3)c3ccccc3c2=O)cc1
- AC50 (CAAX prenyl protease 2 [2]): 5.21 µM (active)
- AC50 (CAAX prenyl protease 2 [3]): 9.42 µM (active)
- AC50 (Trypsin): 9.62 µM (active)

SMILES: Cc1ccccc1-c1nnc(CN2CCC(C)CC2)o1
- AC50 [4]: 46.9 µM (active)

SMILES: Cc1ccc2[nH]c(CN3CCC(CO)(CC4CCCCO4)CC3)c(C)c2c1 (centres undefined)
- IC50 (Vero [5]): > 25 µM (active)

SMILES: COc1ccc(OC)c(-c2cc(C(=O)Nc3c(C)nn(Cc4ccccc4Cl)c3C)no2)c1
- AC50 [4]: 47.9 µM (active)

SMILES: O=C(COC(=O)c1cccnc1Cl)c1ccc(Cl)cc1Cl
- EC50 (Beta-galactosidase): > 40 µM (inactive)
- IC50 [6]: 35.4 µM (not active)

SMILES: O=[N+]([O-])c1ccc(Sc2cccc3cccnc23)c2cccnc12
- IC50 [7]: > 80 µM (inactive)
- EC50 [8]: 0.666 µM (active)
- EC50 [9]: > 30 µM (not active)

SMILES: Cc1ccc(S(=O)(=O)Cc2cn3cccnc3n2)cc1
- AC50 (CAAX prenyl protease 2 [2]): 16.2 µM (active)
- AC50 (CAAX prenyl protease 2 [3]): 34.3 µM (active)
- AC50 (Trypsin): 25.1 µM (active)

SMILES: Cc1ccc2oc(-c3ccc(C)c(NC(=O)Cc4cccs4)c3)nc2c1
- IC50 (SUMO-activating enzyme): > 100 µM (inactive)

SMILES: Cn1c2ccc(F)cc2c2nc3ccccc3nc21
- IC50 (CHO-K1): > 66.2 µM (inactive)
- IC50 [10]: > 49.7 µM (inactive)
- IC50 [11]: 6.95 µM (active)
- IC50 [12]: 1.17 µM (active)

SMILES: CCNS(=O)(=O)c1ccc(NC(=S)NC2CCCCC2)cc1
- IC50 [13]: > 100 µM (inactive)

SMILES: CCc1nc2ccccc2c(C(=O)OC2CCOC2=O)c1C (centres undefined)
- AC50 (Escherichia coli [14]): 42.9 µM (active)

SMILES: Cc1c(C(=O)O)cccc1-n1c(C)cc(/C=N/Nc2ccc([N+](=O)[O-])cn2)c1C
- EC50 [15]: > 300 µM (not active)
- EC50 [16]: 50.2 µM (active)
- AC50 [17]: 6.79 µM (active)

SMILES: C/C(=N\NC(=O)c1cc(-c2cccs2)nc2ccccc12)c1ccccn1
- IC50 (Nonstructural protein 1): 4.52 µM (active)
- AC50 (INS1): 0.366 µM (active)
- EC50 [18]: 1.19 µM (active)
- EC50 (BJ [19]): 1.3 µM (active)
- EC50 [20]: 2.71 µM (inconclusive)
- EC50 [21]: 1.41 µM (active)
- EC50 (BJ [22]): 2.12 µM (active)
- EC50 (BJ [23]): 1.14 µM (active)
- CC50 (Vero [24]): 1.62 µM (active)
- IC50 (Vero [5]): > 25 µM (active)

SMILES: O=C1OCCN1/N=C/c1ccc([N+](=O)[O-])o1 [FURAZOLIDONE]
- EC50 [25]: > 50 µM (active)
- AC50 (Escherichia coli [26]): 24.4 µM (active)
- AC50 (Escherichia coli [14]): 17.8 µM (active)

SMILES: CCCN1CCC[C@@H]2Cc3n[nH]cc3C[C@H]21 [QUINPIROLE HYDROCHLORIDE]
- AC50 [1]: 11.2 µM (inconclusive)
